How the values were obtained:
Assay in all cases: relative viability (nuclei count vs DMSO), 5 days (fraction); higher = more cells survive
[1] = compound: O=C(NC1CCNCC1)c1n[nH]cc1NC(=O)c1c(Cl)cccc1Cl [AT-7519] + CC(C)C[C@H](NC(=O)[C@H](Cc1ccccc1)NC(=O)c1cnccn1)B(O)O [Bortezomib] (partner 0.002 µM)
Procedure, shortened: (§1)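 After 5 days of treatment, lung cancer cells in 1536-well plates were fixed and stained in a single step (final 0.05% Triton X-100, 1% formaldehyde, 1 ug/ml Hoechst) and their nuclei counted on 4× images. Treatment had been applied by pin tool the day after seeding as one drug alone or as a fixed anchor-drug dose with five library-drug doses (not always all listed) in √10 steps. Relative viability is the nuclei count of treated wells divided by that of vehicle wells, and values are medians of duplicate plates.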

[2] = compound: C1=CC2=C(C=C(C(=C2N=C1)O)N=NC3=CC4=C(C=C3)C=C(C=C4)S(=O)(=O)O)S(=O)(=O)O + Cc1nc(Nc2ncc(C(=O)Nc3c(C)cccc3Cl)s2)cc(N2CCN(CCO)CC2)n1 [Dasatinib] (partner 0.075 µM)
Procedure, shortened: as §1

[3] = compound: O=C(NC1CCNCC1)c1n[nH]cc1NC(=O)c1c(Cl)cccc1Cl [AT-7519] + Cc1cc(Nc2cc(N3CCN(C)CC3)nc(Sc3ccc(NC(=O)C4CC4)cc3)n2)n[nH]1 [Tozasertib] (partner 0.1 µM)
Procedure, shortened: as §1

[4] = compound: O=C(NC1CCNCC1)c1n[nH]cc1NC(=O)c1c(Cl)cccc1Cl [AT-7519] + Nc1nc2[nH]cc(CCc3ccc(C(=O)N[C@@H](CCC(=O)O)C(=O)O)cc3)c2c(=O)[nH]1 [Pemetrexed] (partner 0.2 µM)
Procedure, shortened: as §1

Cell Line | relative viability ([1]; first compound 0.01 µM) | relative viability ([1]; first compound 0.03162 µM) | relative viability ([1]; first compound 0.3162 µM) | relative viability ([1]; first compound 1 µM) | relative viability ([2]; first compound 0.08 µM) | relative viability ([2]; first compound 0.253 µM) | relative viability ([2]; first compound 0.8 µM) | relative viability ([2]; first compound 2.53 µM) | relative viability ([2]; first compound 8 µM) | relative viability ([3]; first compound 0.01 µM) | relative viability ([3]; first compound 0.03162 µM) | relative viability ([3]; first compound 0.3162 µM) | relative viability ([3]; first compound 1 µM) | relative viability ([4]; first compound 0.01 µM) | relative viability ([4]; first compound 0.03162 µM) | relative viability ([4]; first compound 0.3162 µM) | relative viability ([4]; first compound 1 µM)
IA-LM | 0.927 | 0.979 | 0.781 | 0.302 |  |  |  |  |  |  |  |  |  |  |  |  | 
LC-2-ad | 0.962 | 0.978 | 1.02 | 0.672 | 0.799 | 0.593 | 0.555 | 0.548 | 0.687 | 0.49 | 0.467 | 0.519 | 0.266 | 0.263 | 0.276 | 0.28 | 0.268
LCLC-97TM1 | 1.22 | 0.58 | 0.379 | 0.123 | 0.705 | 0.842 | 0.691 | 0.779 | 0.865 | 0.24 | 0.208 | 0.27 | 0.124 | 0.182 | 0.156 | 0.152 | 0.165
LCLC-103H | 1.01 | 1.05 | 1.07 | 1.2 | 0.537 | 0.461 | 0.505 | 0.458 | 0.48 | 0.489 | 0.408 | 0.511 | 0.432 | 0.461 | 0.476 | 0.437 | 0.401
LK-2 |  |  |  |  | 0.357 | 0.33 | 0.204 | 0.33 | 0.239 | 0.18 | 0.165 |  | 0.206 | 0.305 | 0.259 | 0.212 | 0.201
LOU-NH91 | 0.541 | 0.541 | 0.468 | 0.478 | 0.579 | 0.585 | 0.53 | 0.597 | 0.508 | 0.722 | 0.679 | 0.676 | 0.57 | 0.306 | 0.359 | 0.385 | 0.506
LU99A | 1.15 | 1.07 | 1.14 | 0.988 | 0.496 | 0.496 | 0.474 | 0.555 | 0.514 | 0.26 | 0.276 | 0.297 | 0.218 | 0.215 | 0.199 | 0.165 | 0.198
LXF-289 | 0.951 | 1.05 | 0.957 | 1.01 | 0.196 | 0.215 | 0.205 | 0.208 | 0.229 | 0.159 | 0.184 | 0.195 | 0.178 | 0.866 | 0.905 | 0.909 | 0.992
NCI-H23 | 0.983 | 1.04 | 0.852 | 0.504 | 0.922 | 0.877 | 0.702 | 0.95 | 0.927 | 0.332 | 0.361 | 0.337 | 0.395 | 0.563 | 0.734 | 0.591 | 0.494
NCI-H358 |  |  |  |  | 0.149 | 0.183 | 0.153 | 0.184 | 0.168 | 0.111 | 0.116 | 0.0818 | 0.0852 | 0.175 | 0.172 | 0.164 | 0.132
NCI-H522 |  |  |  |  | 0.91 | 0.92 | 0.746 | 0.788 | 1.03 |  | 0.514 | 0.57 | 0.486 | 0.992 | 0.943 | 1.03 | 0.929
NCI-H727 | 0.973 | 0.837 | 0.573 | 0.526 | 0.454 | 0.39 | 0.352 | 0.412 | 0.345 | 0.574 | 0.551 | 0.519 | 0.367 |  |  |  | 
NCI-H1299 | 1.05 | 0.996 | 1.05 | 1.28 |  |  |  |  |  |  |  |  |  |  |  |  | 
NCI-H1395 |  |  |  |  | 0.386 | 0.433 | 0.45 | 0.397 | 0.43 | 0.788 | 0.782 | 0.716 | 0.668 | 0.847 | 0.896 | 0.899 | 0.558
NCI-H1563 | 0.874 | 0.905 | 0.901 | 0.85 | 0.455 | 0.478 | 0.492 | 0.397 | 0.418 |  |  |  |  | 0.743 | 0.868 | 0.81 | 0.807
NCI-H1623 |  |  |  |  | 0.465 | 0.519 | 0.575 | 0.547 | 0.251 | 0.378 | 0.401 | 0.518 | 0.393 |  |  |  | 
NCI-H1648 |  |  |  |  |  |  |  |  |  | 0.37 |  | 0.371 | 0.405 | 0.806 |  | 0.666 | 0.691
NCI-H1703 | 0.392 | 0.323 | 0.182 | 0.151 |  |  |  |  |  |  |  |  |  |  |  |  | 
NCI-H1792 | 0.752 | 0.89 | 0.882 | 0.888 | 0.772 | 0.669 | 0.458 | 0.84 | 0.835 |  |  |  |  | 0.612 | 0.645 | 0.666 | 0.919
NCI-H1793 |  |  |  |  | 0.372 | 0.403 | 0.364 | 0.367 | 0.372 | 0.32 | 0.323 | 0.33 | 0.312 | 0.752 | 0.882 | 0.647 | 0.693
NCI-H1944 |  |  |  |  | 0.222 | 0.244 | 0.201 | 0.212 | 0.206 | 0.25 | 0.24 | 0.249 | 0.213 | 0.633 | 0.593 | 0.602 | 0.511
NCI-H2170 |  |  |  |  | 0.636 | 0.574 | 0.659 | 0.633 | 0.55 | 0.672 | 0.751 | 0.762 | 0.651 | 0.263 | 0.276 | 0.241 | 0.25
NCI-H2342 |  |  |  |  | 0.297 | 0.307 | 0.286 | 0.308 | 0.348 | 0.483 | 0.52 | 0.493 | 0.557 | 0.789 | 0.743 | 0.762 | 0.687
SK-MES-1 |  |  |  |  | 0.43 | 0.35 | 0.353 | 0.531 | 0.477 | 0.928 | 1 | 0.814 | 0.243 | 1.12 | 1.04 | 0.982 | 0.798
SW 900 |  |  |  |  | 0.596 | 0.668 | 0.619 | 0.52 | 0.743 | 0.613 | 0.484 | 0.639 | 0.375 | 0.453 | 0.425 | 0.452 | 0.478
